Experimental findings from patent publication US5340818A, “Methods and compositions for inhibiting tumor cell growth” (priority 1993, dated 1994) are described below.

By pIC50 is commonly meant the negative decadic logarithm of the IC50, by convention in mol/L. High values mean a small IC50, low ones a large IC50.

Each structure is given as a SMILES string. pIC50: −log10 of the molar value.

One assay deals with L1210/Dx cells. Briefly: Cross-resistance studies: growth inhibition of doxorubicin-resistant L1210/Dx cells. The format is cell-based. Conditions: for (IC50) 0/(IC50) Dx: L1210/0 and L1210/Dx; for pIC50: Mus musculus, L1210/Dx (doxorubicin resistant).
The next assay deals with L1210/0 cells. Briefly: Cross-resistance studies: growth inhibition of doxorubicin-sensitive L1210/0 cells. It counts as cell-based. The following applies: L1210/0 (doxorubicin sensitive).

Consider `COc1cccc2c1C(=O)c1c(O)c3c(c(O)c1C2=O)C[C@@](O)(C(=O)CO)C[C@@H]3O[C@H]1C[C@H](N)[C@H](O)[C@H](C)O1` [Doxorubicin], for which the “(IC50) 0/(IC50) Dx” value with L1210/Dx cells worked out at 26.1. The pIC50 is 6.14 in the assay on L1210/Dx cells and 7.55 in the assay on L1210/0 cells.
For `COc1cc(NS(C)(=O)=O)ccc1Nc1c2ccccc2nc2ccccc12` [m-AMSA], in that order: 61-610, 7.21 and 9.00 to 10.00.
